# Assay results reported in US10772893B2, “2-(morpholin-4-yl)-1,7-naphthyridines” (BAYER PHARMA AKTIENGESELLSCHAFT, priority 2014, dated 2020).
# System: HeLa cells
# Test: Proliferation assay, crystal violet staining
# Settings: Homo sapiens, 96 h, read-out: Inhibition of HeLa cell proliferation
row,SMILES,IC50
1,"COP(=O)(OC)c1ccc(-c2cc(N3CCOCC3)nc3c(-c4ccn[nH]4)nccc23)cc1 [Example 9, dimethyl {4-[2-(morpholin-4-yl)-8-(1H-pyrazol-5-yl)-1,7-naphthyridin-4-yl]phenyl}phosphonate]",1010 nM

# Same assay, conditions: Homo sapiens, 96 h, read-out: Inhibition of HeLa cell proliferation, HeLa cells, 4 days incubation
row,SMILES,IC50
1,"C[C@@H]1CN[C@@H](C)CN1c1cc(N2CCOCC2)nc2c(-c3ccn[nH]3)nccc12 (relative stereo) [Example 178, 4-[(trans)-2,5-dimethylpiperazin-1-yl]-2-(morpholin-4-yl)-8-(1H-pyrazol-5-yl)-1,7-naphthyridine]",> 3000 nM
2,"CS(=O)(=O)c1ccc(-c2cc(N3CCOCC3)nc3c(-c4ccn[nH]4)nccc23)cn1 [Example 3, 4-[6-(methylsulfonyl)pyridin-3-yl]-2-(morpholin-4-yl)-8-(1H-pyrazol-5-yl)-1,7-naphthyridine]",2770 nM
3,"Cc1cc(S(C)(=O)=O)ncc1-c1cc(N2CCOCC2)nc2c(-c3ccn[nH]3)nccc12 [Example 6, 4-[4-methyl-6-(methylsulfonyl)pyridin-3-yl]-2-(morpholin-4-yl)-8-(1H-pyrazol-5-yl)-1,7-naphthyridine]",1490 nM
4,"CN1CC=C(c2cc(N3CCOCC3)nc3c(-c4ccn[nH]4)nccc23)CC1 [Example 14, 4-(1-methyl-1,2,3,6-tetrahydropyridin-4-yl)-2-(morpholin-4-yl)-8-(1H-pyrazol-5-yl)-1,7-naphthyridine]",1990 nM
5,"C[C@@H]1COCCN1c1cc(-c2ccccc2)c2ccnc(-c3cc[nH]n3)c2n1 [Example 27, 2-((R)-3-methylmorpholin-4-yl)-4-phenyl-8-(2H-pyrazol-3-yl)-[1,7]naphthyridine]",355 nM
6,"C[C@@H]1COCCN1c1cc(-c2cccc(S(C)(=O)=O)c2)c2ccnc(-c3cc[nH]n3)c2n1 [Example 28, 4-(3-methanesulphonylphenyl)-2-((R)-3-methylmorpholin-4-yl)-8-(2H-pyrazol-3-yl)-[1,7]naphthyridine]",316 nM
7,"CS(=O)(=O)Cc1cc(N2CCOCC2)nc2c(-c3ccn[nH]3)nccc12 [Example 37, 4-methanesulphonylmethyl-2-morpholin-4-yl-8-(2H-pyrazol-3-yl)-[1,7]naphthyridine]",5080 nM
8,"CCOc1cc(N2CCOCC2)nc2c(-c3cc[nH]n3)nccc12 [Example 43, 4-ethoxy-2-(morpholin-4-yl)-8-(1H-pyrazol-3-yl)-[1,7]naphthyridine]",3880 nM
9,"c1ccc(COc2cc(N3CCOCC3)nc3c(-c4cc[nH]n4)nccc23)cc1 [Example 50, 4-benzyloxy-2-(morpholin-4-yl)-8-(1H-pyrazol-3-yl)-[1,7]naphthyridine]",> 10000 nM
10,"COc1cc(N2CCOC[C@H]2C)nc2c(-c3cc[nH]n3)nccc12 [Example 53, 4-methoxy-2-((R)-3-methylmorpholin-4-yl)-8-(1H-pyrazol-3-yl)-[1,7]naphthyridine]",1410 nM
11,"CCn1nccc1-c1cc(N2CCOC[C@H]2C)nc2c(-c3ccn[nH]3)nccc12 [Example 69, 4-(1-ethyl-1H-pyrazol-5-yl)-2-[(3R)-3-methylmorpholin-4-yl]-8-(1H-pyrazol-5-yl)-1,7-naphthyridine]",191 nM
12,"C[C@@H]1COCCN1c1cc(-c2cncn2C)c2ccnc(-c3ccn[nH]3)c2n1 [Example 70, 4-(1-methyl-1H-imidazol-5-yl)-2-[(3R)-3-methylmorpholin-4-yl]-8-(1H-pyrazol-5-yl)-1,7-naphthyridine]",201 nM
13,"C[C@@H]1COCCN1c1cc(-c2ccccc2N)c2ccnc(-c3ccn[nH]3)c2n1 [Example 71, 2-{2-[(3R)-3-methylmorpholin-4-yl]-8-(1H-pyrazol-5-yl)-1,7-naphthyridin-4-yl]aniline]",167 nM
14,"C[C@@H]1COCCN1c1cc(-c2cccc(F)c2F)c2ccnc(-c3ccn[nH]3)c2n1 [Example 72, 4-(2,3-difluorophenyl)-2-[(3R)-3-methylmorpholin-4-yl]-8-(1H-pyrazol-5-yl)-1,7-naphthyridine]",200 nM
15,"C[C@@H]1COCCN1c1cc(-c2cc(F)ccc2N)c2ccnc(-c3ccn[nH]3)c2n1 [Example 75, 4-fluoro-2-[2-[(3R)-3-methylmorpholin-4-yl]-8-(1H-pyrazol-5-yl)-1,7-naphthyridin-4-yl]aniline]",271 nM
16,"C[C@@H]1COCCN1c1cc(-c2cncn2Cc2ccccc2)c2ccnc(-c3ccn[nH]3)c2n1 [Example 76, 4-(1-benzyl-1H-imidazol-5-yl)-2-[(3R)-3-methylmorpholin-4-yl]-8-(1H-pyrazol-5-yl)-1,7-naphthyridine]",968 nM
17,"C[C@@H]1COCCN1c1cc(-c2ccccc2F)c2ccnc(-c3ccn[nH]3)c2n1 [Example 77, 4-(2-fluorophenyl)-2-[(3R)-3-methylmorpholin-4-yl]-8-(1H-pyrazol-5-yl)-1,7-naphthyridine]",254 nM
18,"Cc1ncc(-c2cc(N3CCOC[C@H]3C)nc3c(-c4ccn[nH]4)nccc23)s1 [Example 78, 2-[(3R)-3-methylmorpholin-4-yl]-4-(2-methyl-1,3-thiazol-5-yl)-8-(1H-pyrazol-5-yl)-1,7-naphthyridine]",655 nM

row,SMILES,IC50
1,"C[C@@H]1COCCN1c1cc(-c2ccnn2C2CC2)c2ccnc(-c3ccn[nH]3)c2n1 [Example 80, 4-(1-cyclopropyl-1H-pyrazol-5-yl)-2-[(3R)-3-methylmorpholin-4-yl]-8-(1H-pyrazol-5-yl)-1,7-naphthyridine]",187 nM
2,"C[C@@H]1COCCN1c1cc(-c2ccc(N3CCNCC3)cc2F)c2ccnc(-c3ccn[nH]3)c2n1 [Example 81, 4-[2-fluoro-4-(piperazin-1-yl)phenyl]-2-[(3R)-3-methylmorpholin-4-yl]-8-(1H-pyrazol-5-yl)-1,7-naphthyridine]",245 nM
3,"C[C@@H]1COCCN1c1cc(N2CCN(S(C)(=O)=O)CC2)c2ccnc(-c3ccn[nH]3)c2n1 [Example 82, 2-[(3R)-3-methylmorpholin-4-yl]-4-[4-(methylsulfonyl)piperazin-1-yl]-8-(1H-pyrazol-5-yl)-1,7-naphthyridine]",529 nM
4,"C[C@@H]1COCCN1c1cc(N(C)CC(C)(C)C)c2ccnc(-c3ccn[nH]3)c2n1 [Example 83, N-(2,2-dimethylpropyl)-N-methyl-2-[(3R)-3-methylmorpholin-4-yl]-8-(1H-pyrazol-5-yl)-1,7-naphthyridin-4-amine]",331 nM
5,"C[C@@H]1COCCN1c1cc(N2CCC(CO)CC2)c2ccnc(-c3ccn[nH]3)c2n1 [Example 84, (1-{2-[(3R)-3-methylmorpholin-4-yl]-8-(1H-pyrazol-5-yl)-1,7-naphthyridin-4-yl}piperidin-4-yl)methanol]",130 nM
6,"C[C@@H]1COCCN1c1cc(N(C)C2CC2)c2ccnc(-c3ccn[nH]3)c2n1 [Example 85, N-cyclopropyl-N-methyl-2-[(3R)-3-methylmorpholin-4-yl]-8-(1H-pyrazol-5-yl)-1,7-naphthyridin-4-amine]",438 nM
7,"C[C@@H]1COCCN1c1cc(N(C)c2ccc(F)cc2)c2ccnc(-c3ccn[nH]3)c2n1 [Example 87, N-(4-fluorophenyl)-N-methyl-2-[(3R)-3-methylmorpholin-4-yl]-8-(1H-pyrazol-5-yl)-1,7-naphthyridin-4-amine]",543 nM
8,"C[C@@H]1COCCN1c1cc(-c2cccnc2F)c2ccnc(-c3ccn[nH]3)c2n1 [Example 89, 4-(2-fluoropyridin-3-yl)-2-[(3R)-3-methylmorpholin-4-yl]-8-(1H-pyrazol-5-yl)-1,7-naphthyridine]",142 nM
9,"Cc1ccnc(F)c1-c1cc(N2CCOC[C@H]2C)nc2c(-c3ccn[nH]3)nccc12 [Example 90, 4-(2-fluoro-4-methylpyridin-3-yl)-2-[(3R)-3-methylmorpholin-4-yl]-8-(1H-pyrazol-5-yl)-1,7-naphthyridine]",92 nM
10,"C[C@@H]1COCCN1c1cc(-c2cccn2C)c2ccnc(-c3ccn[nH]3)c2n1 [Example 91, 2-[(3R)-3-methylmorpholin-4-yl]-4-(1-methyl-1H-pyrrol-2-yl)-8-(1H-pyrazol-5-yl)-1,7-naphthyridine]",108 nM
11,"Cc1cc(-c2cc(N3CCOC[C@H]3C)nc3c(-c4ccn[nH]4)nccc23)cnc1F [Example 92, 4-(6-fluoro-5-methylpyridin-3-yl)-2-[(3R)-3-methylmorpholin-4-yl]-8-(1H-pyrazol-5-yl)-1,7-naphthyridine]",117 nM
12,"Cc1ccc(-c2cc(N3CCOC[C@H]3C)nc3c(-c4ccn[nH]4)nccc23)c(F)n1 [Example 93, 4-(2-fluoro-6-methylpyridin-3-yl)-2-[(3R)-3-methylmorpholin-4-yl]-8-(1H-pyrazol-5-yl)-1,7-naphthyridine]",179 nM
13,"C[C@@H]1COCCN1c1cc(-c2ccc(F)nc2)c2ccnc(-c3ccn[nH]3)c2n1 [Example 94, 4-(6-fluoropyridin-3-yl)-2-[(3R)-3-methylmorpholin-4-yl]-8-(1H-pyrazol-5-yl)-1,7-naphthyridine]",268 nM
14,"COc1ccc(-c2cc(N3CCOC[C@H]3C)nc3c(-c4ccn[nH]4)nccc23)cn1 [Example 95, 4-(6-methoxypyridin-3-yl)-2-[(3R)-3-methylmorpholin-4-yl]-8-(1H-pyrazol-5-yl)-1,7-naphthyridine]",211 nM
15,"COc1ncc(-c2cc(N3CCOC[C@H]3C)nc3c(-c4ccn[nH]4)nccc23)cc1C [Example 96, 4-(6-methoxy-5-methylpyridin-3-yl)-2-[(3R)-3-methylmorpholin-4-yl]-8-(1H-pyrazol-5-yl)-1,7-naphthyridine]",169 nM
16,"Cc1nc(F)ccc1-c1cc(N2CCOC[C@H]2C)nc2c(-c3ccn[nH]3)nccc12 [Example 97, 4-(6-fluoro-2-methylpyridin-3-yl)-2-[(3R)-3-methylmorpholin-4-yl]-8-(1H-pyrazol-5-yl)-1,7-naphthyridine]",252 nM
17,"C[C@@H]1COCCN1c1cc(-c2cc(C(F)(F)F)nn2C)c2ccnc(-c3ccn[nH]3)c2n1 [Example 98, 2-[(3R)-3-methylmorpholin-4-yl]-4-[1-methyl-3-(trifluoromethyl)-1H-pyrazol-5-yl]-8-(1H-pyrazol-5-yl)-1,7-naphthyridine]",440 nM
18,"Cc1ccsc1-c1cc(N2CCOC[C@H]2C)nc2c(-c3ccn[nH]3)nccc12 [Example 99, 2-[(3R)-3-methylmorpholin-4-yl]-4-(3-methyl-2-thienyl)-8-(1H-pyrazol-5-yl)-1,7-naphthyridine]",400 nM
